Read-outs that look alike come from different tables or passages of the source.
Tests used:
[1] = molecular target: T1, glutathione-S-transferase (GST) tagged LXRbeta LBD (ligand binding domain) (Homo sapiens, UniProt P55055); assay: LanthaScreen TR-FRET Liver X Receptor Coactivator Assay, LXR beta; format: biochemical; conditions: for EC50: LXR beta IP, potency (Inflection Point), compound-induced co-activator recruitment, TR-FRET; for Emax: read-out: LXR beta actiivty at max dose, efficacy (% Emax) in relation to reference dual agonist T0901317
T1 construct: purchased Invitrogen pv4658
T1 sequence (P55055 222-460 limits assumed): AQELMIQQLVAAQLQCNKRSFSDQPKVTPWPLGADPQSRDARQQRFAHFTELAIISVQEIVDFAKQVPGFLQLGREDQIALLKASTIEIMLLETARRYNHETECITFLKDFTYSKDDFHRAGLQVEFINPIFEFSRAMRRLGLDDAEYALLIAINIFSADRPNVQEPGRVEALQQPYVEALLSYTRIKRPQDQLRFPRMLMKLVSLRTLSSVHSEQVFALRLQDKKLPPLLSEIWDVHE
Method: (§1) While running the LanthaScreen™ TR-FRET Liver X Receptor Coactivator Assay, LXR alpha-LBD or LXR beta-LBD was added to ligand test compounds followed by addition of a mixture of a fluorescein-labelled coactivator peptide and terbium-conjugated anti-GST antibody. After an incubation period at room temperature, TR-FRET (time-resolved fluorescence resonance energy transfer) was measured using a filter-based instrument capable of TR-FRET, e.g. PerkinElmer Envision.

[2] = molecular target: T2, glutathione-S-transferase (GST) tagged LXRalpha LBD (ligand binding domain) (Homo sapiens, UniProt Q13133); assay: biochemical; conditions: for EC50: LXR alpha IP; for EC50 / LXR alpha IP: potency (Inflection Point), compound-induced co-activator recruitment, TR-FRET
T2 construct: purchased Invitrogen pv4655
T2 sequence (Q13133 209-447 limits assumed): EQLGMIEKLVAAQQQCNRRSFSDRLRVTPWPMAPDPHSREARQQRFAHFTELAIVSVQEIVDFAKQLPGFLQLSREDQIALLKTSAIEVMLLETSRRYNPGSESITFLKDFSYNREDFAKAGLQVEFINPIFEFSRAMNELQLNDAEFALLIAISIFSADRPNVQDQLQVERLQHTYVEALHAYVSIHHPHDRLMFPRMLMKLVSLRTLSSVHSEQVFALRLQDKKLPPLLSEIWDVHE
Method: as §1

[3] = read-out: LXR alpha actiivty at max dose, efficacy (% Emax) in relation to reference dual agonist T0901317

SMILES	EC50 [1] [nM]	Emax [1] [%]	EC50 [2] [nM]	Emax [2, 3] [%]	LXR alpha IP [2]	Emax ([2]; efficacy (% Emax) in relation to reference dual agonist T0901317, read-out: LXR alpha actiivty at max dose) [%]
CN(C)C(=O)c1ccc(OCCCCC2CCN(C(=O)C(O)(c3cccc(F)c3)C(F)(F)F)CC2)cc1Cl (single isomer, unassigned) [Example 3-4, (R or S)-2-chloro-N,N-dimethyl-4-(4-(1-(3,3,3-trifluoro-2-(3-fluorophenyl)-2-hydroxypropanoyl)piperidin-4-yl)butoxy)benzamide]	7	73	126	41	–	–
CN(C)C(=O)c1ccc(OCCCCC2CCN(C(=O)C3(c4ccccc4)CCCO3)CC2)cc1Cl (single isomer, unassigned) [Example 3-5, (S or R)-2-chloro-N,N-dimethyl-4-(4-(1-(2-phenyl-tetrahydrofuran-2-carbonyl)piperidin-4-yl)butoxy)benzamide]	91	54	–	0	No IP	–
CN(C)C(=O)c1ccc(OCCCCC2CCN(C(=O)C(O)(c3ccccc3)C(F)(F)F)CC2)cc1Cl (single isomer, unassigned) [Example 3-8, 2-chloro-N,N-dimethyl-4-(4-(1-(3,3,3-trifluoro-2-hydroxy-2-phenylpropanoyl)piperidin-4-yl)butoxy)benzamide]	5	85	173	30	–	–
CN(C)C(=O)c1ccc(OCCCCC2CCN(C(=O)C(O)(c3cccc(OC(F)(F)F)c3)C(F)(F)F)CC2)cc1Cl (single isomer, unassigned) [Example 3-9, (R or S)-2-chloro-N,N-dimethyl-4-(4-(1-(3,3,3-trifluoro-2-hydroxy-2-(3-(trifluoromethoxy)phenyl)propanoyl)piperidin-4-yl)butoxy)benzamide]	15	64	289	17	–	–
CN(C)C(=O)c1ccc(OCCCCC2CCN(C(=O)C(C)(O)c3ccccc3)CC2)cc1Cl (single isomer, unassigned) [Example 3-10, (S or R)-2-chloro-4-(4-(1-(2-hydroxy-2-phenylpropanoyl)piperidin-4-yl)butoxy)-N,N-dimethylbenzamide]	353	55	–	5	No IP	–
CC(C)Oc1cccc(C(O)(C(=O)N2CCC(CCCCOc3ccc(C(=O)N(C)C)c(Cl)c3)CC2)C(F)(F)F)c1 (single isomer, unassigned) [Example 3-11, (S or R)-2-chloro-N,N-dimethyl-4-(4-(1-(3,3,3-trifluoro-2-hydroxy-2-(3-isopropoxyphenyl)propanoyl)piperidin-4-yl)butoxy)benzamide]	9	80	614	21	–	–
CCc1cccc(C(O)(C(=O)N2CCC(CCCCOc3ccc(C(=O)N(C)C)c(Cl)c3)CC2)C(F)(F)F)c1 (single isomer, unassigned) [Example 3-12, (R or S)-2-chloro-4-(4-(1-(2-(3-ethylphenyl)-3,3,3-trifluoro-2-hydroxypropanoyl)piperidin-4-yl)butoxy)-N,N-dimethylbenzamide]	16	76	–	15	No IP	–
COc1cccc(C(O)(C(=O)N2CCC(CCCCOc3ccc(C(=O)N(C)C)c(Cl)c3)CC2)C(F)(F)F)c1 (single isomer, unassigned) [Example 3-13, (S or R)-2-chloro-N,N-dimethyl-4-(4-(1-(3,3,3-trifluoro-2-hydroxy-2-(3-methoxyphenyl)propanoyl)piperidin-4-yl)butoxy)benzamide]	394	61	–	0	No IP	–
CN(C)C(=O)c1ccc(OCCCCC2CCN(C(=O)C(O)(c3cccc(-c4cnn(C)c4)c3)C(F)(F)F)CC2)cc1Cl (single isomer, unassigned) [Example 3-19, (R or S)-2-chloro-N,N-dimethyl-4-(4-(1-(3,3,3-trifluoro-2-hydroxy-2-(3-(1-methyl-1H-pyrazol-4-yl)phenyl)propanoyl)piperidin-4-yl)butoxy)benzamide]	124	24	1150	25	–	–
CN(C)C(=O)c1ccc(OCCCC2CCN(C(=O)[C@](O)(c3ccccc3)C(F)(F)F)CC2)nc1Cl (single isomer, unassigned) [Example 3-20]	25	74	2290	28	–	–
COc1cccc([C@@](O)(C(=O)N2CCC(CCCCOc3ccc(C(=O)N(C)C)c(C#N)n3)CC2)C(F)(F)F)c1 (single isomer, unassigned) [Example 4-2, (R or S)-2-cyano-N,N-dimethyl-6-(4-(1-(3,3,3-trifluoro-2-hydroxy-2-(3-methoxyphenyl)propanoyl)piperidin-4-yl)butoxy) nicotinamide]	12	81	488	28	–	–
COc1cccc(C(O)(C(=O)N2CCC(CCCCOc3ccc(C(=O)N(C)C)c(OC)c3)CC2)C(F)(F)F)c1 (single isomer, unassigned) [Example 5-1, (R or S)-2-methoxy-N,N-dimethyl-4-(4-(1-(3,3,3-trifluoro-2-hydroxy-2-(3-methoxyphenyl)propanoyl)piperidin-4-yl)butoxy)benzamide]	36	66	–	–	No IP	7
O=C(c1ccc(OCCCCC2CCN(C(=O)C(O)(c3ccccc3)C(F)(F)F)CC2)cc1Cl)N1CCC1 (single isomer, unassigned) [Example 8-1, (R or S)-1-(4-(4-(4-(azetidine-1-carbonyl)-3-chlorophenoxy)butyl)piperidin-1-yl)-3,3,3-trifluoro-2-hydroxy-2-phenylpropan-1-one]	33	55	328	10	–	–
O=C(NC1CC1)c1ccc(OCCCCC2CCN(C(=O)[C@](O)(c3ccccc3)C(F)(F)F)CC2)cc1Cl (single isomer, unassigned) [Example 8-2, (R or S)-2-chloro-N-cyclopropyl-4-(4-(1-(3,3,3-trifluoro-2-hydroxy-2-phenylpropanoyl)piperidin-4-yl)butoxy) benzamide]	13	68	527	29	–	–
O=C(c1ccc(OCCCCC2CCN(C(=O)[C@](O)(c3ccccc3)C(F)(F)F)CC2)cc1Cl)N1CC[C@@H](O)C1 (single isomer, unassigned) [Example 8-3, (R or S)-1-(4-(4-(3-chloro-4-((R or S)-3-hydroxy-pyrrolidine-1-carbonyl)phenoxy)butyl)piperidin-1-yl)-3,3,3-trifluoro-2-hydroxy-2-phenylpropan-1-one]	17	39	1010	26	–	–
O=C(c1ccc(OCCCCC2CCN(C(=O)C(O)(c3ccccc3)C(F)(F)F)CC2)cc1Cl)N1CC(F)(F)C1 (single isomer, unassigned) [Example 8-4, (R or S)-1-(4-(4-(3-chloro-4-(3,3-difluoroazetidine-1-carbonyl)phenoxy)butyl)piperidin-1-yl)-3,3,3-trifluoro-2-hydroxy-2-phenylpropan-1-one]	12	60	48	18	–	–
CC1(C)CCN(C(=O)c2ccc(OCCCCC3CCN(C(=O)C(O)(c4ccccc4)C(F)(F)F)CC3)cc2Cl)C1 (single isomer, unassigned) [Example 8-5, (R or S)-1-(4-(4-(3-chloro-4-(3,3-dimethyl-pyrrolidine-1-carbonyl)phenoxy)butyl)piperidin-1-yl)-3,3,3-trifluoro-2-hydroxy-2-phenylpropan-1-one]	18	27	–	1	No IP	–
O=C(N[C@H]1CCOC1)c1ccc(OCCCCC2CCN(C(=O)[C@](O)(c3ccccc3)C(F)(F)F)CC2)cc1Cl (single isomer, unassigned) [Example 8-6, 2-chloro-N-((S or R)-tetrahydrofuran-3-yl)-4-(4-(1-((R or S)-3,3,3-trifluoro-2-hydroxy-2-phenylpropanoyl)piperidin-4-yl)butoxy) benzamide]	86	75	1050	35	–	–
O=C(c1ccc(OCCCCC2CCN(C(=O)[C@](O)(c3ccccc3)C(F)(F)F)CC2)cc1Cl)N1CCC[C@H]1CO (single isomer, unassigned) [Example 8-7, (R or S)-1-(4-(4-(3-chloro-4-((S or R)-2-(hydroxymethyl)pyrrolidine-1-carbonyl)phenoxy)butyl)piperidin-1-yl)-3,3,3-trifluoro-2-hydroxy-2-phenylpropan-1-one]	7	48	131	42	–	–

Source: patent US11655216B2 (priority 2016, dated 2023)
